Assay results published in publication PMC6675791, “Clozapine-dependent inhibition of EGF/neuregulin receptor (ErbB) kinases” (Translational Psychiatry, 2019).

What was measured:
Experiment in all cases: in vitro kinase assay (ELISA, Tyr-Glu heteropolymer substrate, […] ATP, […] Triton X-100)
Format in all cases: biochemical
ErbB2 kinase = target: T1, ErbB2 kinase (Homo sapiens, UniProt P04626)
T1 construct: recombinant truncated ErbB2 kinase (intracellular domain, lacking the extracellular domain)

ErbB4 kinase = target: T2, ErbB4 kinase (Homo sapiens, UniProt Q15303)
T2 construct: recombinant truncated ErbB4 kinase (intracellular domain, lacking the extracellular domain)

ErbB1 kinase = target: T3, ErbB1 kinase (Homo sapiens, UniProt P00533)
T3 construct: gene EGFR; recombinant truncated ErbB1 kinase (intracellular domain, lacking the extracellular domain)
T3 sequence (P00533 669-1210 limits assumed): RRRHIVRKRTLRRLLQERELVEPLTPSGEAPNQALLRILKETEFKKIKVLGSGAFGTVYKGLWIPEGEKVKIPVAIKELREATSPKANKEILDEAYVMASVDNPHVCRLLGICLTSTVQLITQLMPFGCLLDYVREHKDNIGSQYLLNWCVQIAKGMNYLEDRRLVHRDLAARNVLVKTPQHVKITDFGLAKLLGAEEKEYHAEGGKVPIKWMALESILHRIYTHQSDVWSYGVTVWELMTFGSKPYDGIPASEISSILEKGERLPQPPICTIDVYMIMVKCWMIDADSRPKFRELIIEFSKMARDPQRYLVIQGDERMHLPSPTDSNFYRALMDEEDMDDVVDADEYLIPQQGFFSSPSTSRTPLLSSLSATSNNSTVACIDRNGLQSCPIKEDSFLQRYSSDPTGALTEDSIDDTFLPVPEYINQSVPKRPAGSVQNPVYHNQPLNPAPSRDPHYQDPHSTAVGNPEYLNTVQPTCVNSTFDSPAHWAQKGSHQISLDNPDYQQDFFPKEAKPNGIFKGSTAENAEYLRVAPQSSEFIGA

T2 sequence (Q15303 676-1308 limits assumed): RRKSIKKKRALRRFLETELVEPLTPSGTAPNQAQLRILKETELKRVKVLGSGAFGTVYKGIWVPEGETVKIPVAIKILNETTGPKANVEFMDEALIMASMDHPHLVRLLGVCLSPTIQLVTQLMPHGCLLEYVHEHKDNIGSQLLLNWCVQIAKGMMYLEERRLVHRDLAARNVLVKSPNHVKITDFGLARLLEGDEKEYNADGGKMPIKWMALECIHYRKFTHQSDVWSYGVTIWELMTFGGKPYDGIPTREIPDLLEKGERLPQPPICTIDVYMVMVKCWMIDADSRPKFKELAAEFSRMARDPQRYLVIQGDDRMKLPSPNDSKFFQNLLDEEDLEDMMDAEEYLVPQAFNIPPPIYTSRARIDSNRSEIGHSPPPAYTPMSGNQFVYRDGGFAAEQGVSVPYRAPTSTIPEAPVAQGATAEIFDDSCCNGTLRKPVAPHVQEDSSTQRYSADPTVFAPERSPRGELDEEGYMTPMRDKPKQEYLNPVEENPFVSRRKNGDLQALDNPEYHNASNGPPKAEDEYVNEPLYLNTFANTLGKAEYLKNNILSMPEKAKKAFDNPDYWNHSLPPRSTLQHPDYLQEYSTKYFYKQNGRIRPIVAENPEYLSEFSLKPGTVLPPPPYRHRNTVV
T1 sequence (P04626 676-1255 limits assumed): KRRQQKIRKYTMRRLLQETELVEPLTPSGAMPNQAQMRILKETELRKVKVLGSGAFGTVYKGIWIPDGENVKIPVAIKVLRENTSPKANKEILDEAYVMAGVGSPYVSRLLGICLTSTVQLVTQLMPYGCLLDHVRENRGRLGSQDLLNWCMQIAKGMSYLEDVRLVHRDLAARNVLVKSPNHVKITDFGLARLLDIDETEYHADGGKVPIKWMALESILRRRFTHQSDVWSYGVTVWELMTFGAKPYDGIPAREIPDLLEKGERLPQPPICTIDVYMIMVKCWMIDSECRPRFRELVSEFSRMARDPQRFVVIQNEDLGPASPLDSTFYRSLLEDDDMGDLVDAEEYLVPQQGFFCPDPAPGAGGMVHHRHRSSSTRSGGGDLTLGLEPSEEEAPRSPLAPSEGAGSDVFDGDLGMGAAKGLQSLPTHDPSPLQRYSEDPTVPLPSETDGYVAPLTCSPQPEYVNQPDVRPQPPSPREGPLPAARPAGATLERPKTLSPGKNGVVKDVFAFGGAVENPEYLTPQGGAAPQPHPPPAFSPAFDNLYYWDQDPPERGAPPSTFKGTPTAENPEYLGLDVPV

With CN1CCN(C2=Nc3cc(Cl)ccc3Nc3ccccc32)CC1 [CLZ, clozapine] the “in vitro kinase assay (ELISA, Tyr-Glu heteropolymer substrate, 4 mM ATP, 0.2% Tr)” value (ErbB2 kinase) was 3 µM, the “in vitro kinase assay (ELISA, Tyr-Glu heteropolymer substrate, 4 mM ATP, 0.2% Tr)” value (ErbB4 kinase) was 30 µM and the “in vitro kinase assay (ELISA, Tyr-Glu heteropolymer substrate, 4 mM ATP, 0.2% Tr)” value (ErbB1 kinase) was 30 µM.
